Results published in ChEMBL document CHEMBL2029234, “Sulfonyl-morpholino-pyrimidines: SAR and development of a novel class of selective mTOR kinase inhibitor” (Bioorg Med Chem Lett, 2012).
Converted amounts (≈) assume the structure as drawn.

Tests used:
[1] = molecular target: Serine/threonine-protein kinase mTOR (Homo sapiens, UniProt P42345); assay: Inhibition of recombinant FLAG-tagged mTOR kinase expressed in HEK293 cells using Biotin-Ahx-Lys-Lys-Ala-Asn-Gln-Val-Phe-Leu-Gly-Phe-Thr-Tyr-Val-Ala-Pro-Ser-Val-Leu-Glu-Ser-Val-Lys-Glu-NH2 as substrate after 90 mins
[2] = Inhibition of Akt Ser473 phosphorylation in human MDA-MB-468 cells after 2 hrs; type: cell-based; conditions: MDA-MB-468, 2 h
[3] = Oral bioavailability in rat; type: ADME, organism-based; conditions: in vivo
[4] = Plasma clearance in iv dosed rat; type: ADME, organism-based
[5] = Fraction unbound in rat plasma; type: ADME, cell-free
[6] = molecular target: Phosphatidylinositol 4,5-bisphosphate 3-kinase catalytic subunit alpha isoform (Homo sapiens, UniProt P42336); assay: Inhibition of human recombinant PI3Kalpha expressed in baculovirus system using PI(4,5)P2 as substrate after 20 mins
Sequence of Phosphatidylinositol 4,5-bisphosphate 3-kinase catalytic subunit alpha isoform (P42336 whole entry, canonical isoform): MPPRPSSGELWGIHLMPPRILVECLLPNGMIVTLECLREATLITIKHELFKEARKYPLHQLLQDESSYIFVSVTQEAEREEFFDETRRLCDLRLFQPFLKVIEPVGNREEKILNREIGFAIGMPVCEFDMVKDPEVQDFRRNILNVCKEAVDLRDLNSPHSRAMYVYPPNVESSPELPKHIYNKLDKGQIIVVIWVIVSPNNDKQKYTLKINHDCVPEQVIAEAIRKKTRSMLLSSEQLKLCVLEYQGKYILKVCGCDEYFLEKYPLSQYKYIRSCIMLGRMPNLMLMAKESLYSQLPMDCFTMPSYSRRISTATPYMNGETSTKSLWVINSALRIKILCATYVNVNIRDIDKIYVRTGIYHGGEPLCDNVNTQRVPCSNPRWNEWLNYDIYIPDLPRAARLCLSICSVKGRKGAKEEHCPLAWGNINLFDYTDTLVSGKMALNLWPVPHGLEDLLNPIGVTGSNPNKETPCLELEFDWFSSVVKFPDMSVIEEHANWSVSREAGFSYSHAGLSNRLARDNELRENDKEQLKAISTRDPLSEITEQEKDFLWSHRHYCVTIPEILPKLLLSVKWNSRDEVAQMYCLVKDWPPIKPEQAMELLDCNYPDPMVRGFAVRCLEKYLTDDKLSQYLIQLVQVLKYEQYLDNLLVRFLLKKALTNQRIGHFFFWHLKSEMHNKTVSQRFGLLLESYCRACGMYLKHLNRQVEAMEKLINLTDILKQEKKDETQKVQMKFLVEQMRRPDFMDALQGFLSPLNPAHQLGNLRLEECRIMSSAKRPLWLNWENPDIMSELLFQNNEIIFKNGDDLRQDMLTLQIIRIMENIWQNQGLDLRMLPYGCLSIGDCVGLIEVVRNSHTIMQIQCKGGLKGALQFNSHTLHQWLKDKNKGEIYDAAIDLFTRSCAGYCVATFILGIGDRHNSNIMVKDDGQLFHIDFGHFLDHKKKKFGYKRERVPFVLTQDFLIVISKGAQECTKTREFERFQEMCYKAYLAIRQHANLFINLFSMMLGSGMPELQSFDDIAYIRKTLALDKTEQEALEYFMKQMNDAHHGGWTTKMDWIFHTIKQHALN

[7] = molecular target: Voltage-gated inwardly rectifying potassium channel KCNH2 (Homo sapiens, UniProt Q12809)
Sequence of Voltage-gated inwardly rectifying potassium channel KCNH2 (Q12809 whole entry): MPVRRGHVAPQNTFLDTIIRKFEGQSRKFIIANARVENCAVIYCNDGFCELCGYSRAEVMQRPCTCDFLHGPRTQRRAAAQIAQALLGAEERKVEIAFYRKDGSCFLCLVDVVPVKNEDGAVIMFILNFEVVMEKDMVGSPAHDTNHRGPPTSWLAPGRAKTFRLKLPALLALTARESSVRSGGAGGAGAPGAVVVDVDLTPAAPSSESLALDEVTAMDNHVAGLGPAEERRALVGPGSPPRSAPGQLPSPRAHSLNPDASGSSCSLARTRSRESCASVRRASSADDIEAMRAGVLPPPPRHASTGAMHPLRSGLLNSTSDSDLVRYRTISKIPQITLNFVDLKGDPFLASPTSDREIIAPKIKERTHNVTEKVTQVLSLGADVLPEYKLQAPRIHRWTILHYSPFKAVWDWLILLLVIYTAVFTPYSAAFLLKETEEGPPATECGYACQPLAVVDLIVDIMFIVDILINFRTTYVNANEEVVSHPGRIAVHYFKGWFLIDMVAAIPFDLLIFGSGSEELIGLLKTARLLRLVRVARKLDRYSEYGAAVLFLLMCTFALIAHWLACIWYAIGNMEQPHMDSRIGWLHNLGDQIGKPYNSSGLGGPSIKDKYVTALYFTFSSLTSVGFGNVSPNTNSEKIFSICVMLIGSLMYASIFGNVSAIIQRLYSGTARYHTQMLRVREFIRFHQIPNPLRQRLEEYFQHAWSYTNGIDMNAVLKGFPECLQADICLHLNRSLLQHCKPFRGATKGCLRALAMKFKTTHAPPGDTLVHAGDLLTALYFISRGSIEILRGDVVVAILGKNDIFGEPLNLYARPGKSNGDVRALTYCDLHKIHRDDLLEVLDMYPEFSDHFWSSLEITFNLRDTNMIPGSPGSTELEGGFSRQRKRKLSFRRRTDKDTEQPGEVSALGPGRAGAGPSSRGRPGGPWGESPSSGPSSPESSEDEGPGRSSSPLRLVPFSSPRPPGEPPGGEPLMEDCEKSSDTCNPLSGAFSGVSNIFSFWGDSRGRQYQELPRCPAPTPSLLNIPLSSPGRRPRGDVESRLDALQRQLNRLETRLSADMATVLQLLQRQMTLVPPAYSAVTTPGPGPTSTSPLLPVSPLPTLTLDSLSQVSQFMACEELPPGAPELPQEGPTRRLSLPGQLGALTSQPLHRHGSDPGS

physchem [8] = conditions: aqueous, pH 7.4
physchem [9] = conditions: buffer, pH 7.4
[10] = Inhibition of Cytochrome P450; type: ADME
[11] = Apparent permeability from apical to basal side of MDCK cells; type: ADME, cell-based, Canis lupus familiaris; conditions: dog
[12] = Apparent permeability from basal to apical side of MDCK cells; type: ADME, cell-based, Canis lupus familiaris; conditions: dog
[13] = Volume of distribution in iv dosed rat; type: ADME, organism-based; conditions: in vivo
Cytochrome P450 2C9 = Cytochrome P450 2C9 (Homo sapiens, UniProt P11712); assay: Inhibition of CYP2C9; type: ADME
Sequence of Cytochrome P450 2C9 (P11712 whole entry): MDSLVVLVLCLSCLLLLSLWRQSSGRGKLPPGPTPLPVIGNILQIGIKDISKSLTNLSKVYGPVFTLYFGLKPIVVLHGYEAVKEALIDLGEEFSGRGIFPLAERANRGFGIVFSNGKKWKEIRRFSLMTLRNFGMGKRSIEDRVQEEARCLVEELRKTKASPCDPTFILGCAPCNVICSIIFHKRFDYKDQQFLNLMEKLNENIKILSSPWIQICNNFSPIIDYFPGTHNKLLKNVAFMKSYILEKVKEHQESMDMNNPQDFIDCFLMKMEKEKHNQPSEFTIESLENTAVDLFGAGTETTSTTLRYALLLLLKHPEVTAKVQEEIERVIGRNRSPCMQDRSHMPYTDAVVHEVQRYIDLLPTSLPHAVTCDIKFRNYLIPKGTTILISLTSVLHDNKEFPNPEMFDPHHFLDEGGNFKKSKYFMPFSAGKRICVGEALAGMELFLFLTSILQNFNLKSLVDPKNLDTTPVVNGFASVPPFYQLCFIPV

Row | Structure (SMILES) | IC50 [1] | IC50 [2] | bioavailability [3] | clearance [4] | fraction unbound [5] | IC50 [6] | solubility (physchem [8]) | logD (physchem [9]) | IC50 [10] | Papp A→B [11] | Papp B→A [12] | Vd [13] | IC50 (Cytochrome P450 2C9) | IC50 [7]
1 | CS(=O)(=O)Cc1cc(N2CCOCC2)nc(-c2cccc3[nH]ccc23)n1 | 1.46 µM | 6.3 µM | – | – | 0.301 | 14.3 µM | 13 µM (≈ 4.84 µg/mL) | 1.7 | – | – | – | – | – | > 33 µM
2 | CS(=O)(=O)Cc1cc(N2CCOCC2)nc(-c2ccc(NS(C)(=O)=O)cc2)n1 | – | > 20 µM | 38% | 15 mL/min/kg | > 0.66 | > 100 µM | 11 µM (≈ 4.69 µg/mL) | 0.85 | – | – | – | – | – | –
3 | O=S(=O)(Cc1cc(N2CCOCC2)nc(-c2ccccn2)n1)c1ccccc1 | – | 9.2 µM | 18% | 32 mL/min/kg | – | – | – | 1.34 | > 10 µM | – | – | – | – | > 32 µM
4 | Cn1ccc2cc(-c3nc(CS(C)(=O)=O)cc(N4CCOCC4)n3)ccc21 | > 100 µM | – | – | – | – | > 24 µM | – | – | – | – | – | – | – | –
5 | CS(=O)(=O)Cc1cc(N2CCOCC2)nc(-c2ccc3[nH]ccc3c2)n1 | – | 5.7 µM | 3% | 4 mL/min/kg | 0.193 | – | 6.2 µM (≈ 2.31 µg/mL) | 2.1 | – | 37 ×10⁻⁶ cm/s | 34 ×10⁻⁶ cm/s | 0.4 L/kg | 5 µM | > 32 µM
6 | CS(=O)(=O)Cc1cc(N2CCOCC2)nc(-c2ccccc2)n1 | 5 µM | > 30 µM | 97% | 11 mL/min/kg | 0.28 | > 1000 µM | – | 1.94 | > 10 µM | – | – | – | – | –
7 | CS(=O)(=O)Cc1cc(N2CCOCC2)nc(NC(=O)c2ccno2)n1 | 0.037 µM | 5.1 µM | – | – | 0.32 | > 100 µM | – | 1.74 | – | – | – | – | – | –
8 | CC(C)S(=O)(=O)Cc1cc(N2CCOCC2)nc(-c2ccccn2)n1 | 1.54 µM | > 30 µM | – | – | – | 36.7 µM | – | – | – | – | – | – | – | –
9 | C[C@@H]1COCCN1c1cc(CS(C)(=O)=O)nc(-c2ccc3[nH]ccc3c2)n1 | – | 3.1 µM | – | – | – | 5.3 µM | – | – | – | – | – | – | – | –

More lines, main results first:

Row | IC50 [1] | IC50 [2] | bioavailability [3] | clearance [4] | fraction unbound [5] | IC50 [6] | solubility (physchem [8]) | logD (physchem [9]) | IC50 [10] | Papp A→B [11] | Papp B→A [12] | Vd [13] | IC50 (Cytochrome P450 2C9) | Structure (SMILES) | IC50 [7]
10 | 0.601 µM | 3.4 µM | 41% | 25 mL/min/kg | 0.447 | 2.05 µM | – | – | – | – | – | – | – | CS(=O)(=O)Cc1cc(N2CCOCC2)nc(-c2cccc(CO)c2)n1 | –
11 | – | 1.88 µM | 33% | 36 mL/min/kg | 0.167 | 22.9 µM | 192 µM (≈ 74.2 µg/mL) | 2.4 | – | – | – | – | – | C[C@H]1COCCN1c1cc(CS(C)(=O)=O)nc(-c2ccc3[nH]ccc3c2)n1 | –
12 | 0.252 µM | 1.9 µM | – | – | 0.22 | > 48 µM | 1.5 µM (≈ 0.598 µg/mL) | – | – | – | – | – | – | CS(=O)(=O)Cc1cc(N2CC3CCC(C2)O3)nc(-c2ccc3[nH]ccc3c2)n1 | > 32 µM
13 | – | – | – | – | – | – | – | > 3.2 | – | – | – | – | – | CS(=O)(=O)Cc1cc(N2CCOCC2)nc(-c2ccc(NC(=O)Nc3ccc(F)cc3)cc2)n1 | –
14 | 0.285 µM | 7.2 µM | 10% | 37 mL/min/kg | – | 1.06 µM | – | – | – | – | – | – | – | CS(=O)(=O)Cc1cc(N2CCOCC2)nc(-c2ccc3[nH]cnc3c2)n1 | > 32 µM
15 | 3.16 µM | > 80 µM | – | – | – | > 90 µM | – | < 0.5 | – | – | – | – | – | O=S(=O)(CCc1cnccn1)Cc1cc(N2CCOCC2)nc(-c2ccccn2)n1 | –
16 | 0.262 µM | 1.03 µM | 43% | 4 mL/min/kg | – | 0.98 µM | 48 µM (≈ 17.9 µg/mL) | – | – | – | – | – | – | CS(=O)(=O)Cc1cc(N2CCOCC2)nc(-c2cnc3[nH]ccc3c2)n1 | > 32 µM
17 | 1.38 µM | 12.4 µM | – | – | – | 7.6 µM | – | – | – | – | – | – | – | O=S(=O)(Cc1cc(N2CCOCC2)nc(-c2ccccn2)n1)c1ccc(F)cc1 | –
18 | 22.5 µM | – | – | – | – | > 300 µM | – | – | – | – | – | – | – | COCc1cccc(-c2nc(CS(C)(=O)=O)cc(N3CCOCC3)n2)c1 | –
